Results: patent US5599825A, “Water-soluble methine compound and pharmaceutical composition for treatment of cancer comprising the same” (Fuji Photo Film Co., Ltd., priority 1994, dated 1997)

Tests used:
[1] = tested on: LOX, a human melanoma cell line; test: Nude mice bearing human melanoma LOX (survival); assay type: in vivo, human (in male athymic Swiss nu/nu mouse); details: i.p.
Experimental: Nude Mice Bearing Human Melanoma as a Model System
LOX, a human melanoma cell line, grown subcutaneously in nude mice was excised, trypsinized to yield a single cell suspension using a metal grid with a […]. Red blood cells were lysed by incubation with 0.17 molar ammonium chloride at 4° C. for 20 minutes. Five million viable trypan blue negative cells made up in 0.1 ml of Dulbecco modified Eagles' medium (DME) were injected into the peritoneal cavity of a male athymic Swiss nu/nu mouse. The control group and each treatment group consisted of 5 to 10 mice. Treatment was commenced the following day by intraperitoneal injection.
Ten control mice received 0.25 ml of 2% dextrose on those days the treated groups were injected with the compounds of this invention. The compounds of the General Formulas (I) to (II) used in this invention which were tested are listed in Table 6 below and the results obtained are shown in Table 6 of the accompanying drawings. T/C is the ratio, expressed as a percentage of the mean survival age of the treated group to the mean survival age of the untreated control group.

[2] = Solubility test 2: 5 mg in 0.5 ml ion-exchanged water, macroscopic (10 mg/ml); assay type: physicochemical; details: room temperature, 5 minutes shaking
Experimental: (§1) The solubility tests were conducted by the following methods of tests 1 and 2:
5 mg of a methine compound is fed into a test tube, to which 0.5 ml of ion-exchanged water is added, the resultant mixture is shaken at room temperature for 5 minutes, and the solubility thereof is macroscopically confirmed (10 mg/ml solution).

[3] = Solubility test 1: 5 mg in 5 ml ion-exchanged water, macroscopic (1 mg/ml); assay type: physicochemical; details: room temperature; for Solubility 1 mg/mL: 5 minutes shaking; for dissolution in the above-described solubility tests: summary in words
Experimental: as §1
5 mg of a methine compound is fed into a test tube, to which 5 ml of ion-exchanged water is added, the resultant mixture is shaken at room temperature for 5 minutes, and the solubility thereof is macroscopically confirmed (1 mg/ml solution).

[4] = Solubility in 5% glucose solution for injection, macroscopic (10 mg/ml); assay type: physicochemical; details: room temperature, 5 minutes shaking
Experimental: The solubility of each of the compounds of the present invention synthesized in Example 1 in 5% glucose solution for injection was examined.
5 mg of a methine compound was fed into a test tube, to which 0.5 ml of 5% glucose solution for injection was added, the resultant mixture was shaken at room temperature for 5 minutes, and the solubility thereof was macroscopically confirmed (10 mg/ml solution).

[5] = tested on: human colonic epithelial carcinoma LS174T; test: Activity against human colonic epithelial carcinoma LS174T in nude mouse (tumor inhibition); assay type: in vivo, human (transplanted in BALB/C nu/nu mice); details: i.v.
Experimental: Activity of the present pharmaceutical compositions against human colonic epithelial carcinoma LS174T was determined by use of nude mouse as follows:
As the human colonic epithelial carcinoma cell lines LS174T, there was used the established line by trypsinizing piece of LS174T obtained from the operating theatre of the original adenocarcinoma of colon in such that the piece becomes suitable for cultivation. When this cultured cells LS174T are hypodermically injected to a nude mouse, the cells can be easily grown in the body of the nude mouse as a moderately to sufficiently differentiated human colonic epithelial carcinoma. The cells LS174T produce CEA in high level and can proliferate in hamster cheek pouches or immunodeprived mice, so that it has been proven that the cells LS174T have neoplastic properties.
BALB/C nu/nu mice (male, five weeks age) available from Charles River Japan Inc. were placed in an atmosphere having no pathogen. Tumors formed by the hypodermic injection of human colonic epithelial carcinoma cell lines LS174T into the mice were cut off under the aseptic condition, and the surrounding skin and connective tissue of the tumor tissues as well as the necrotic tissue located in the center of the tumor tissues were removed. The tumor tissues were Cut in the form of 3-5 mm square, and the resulting one tissue was charged into a needle for transplantation to hypodermically transplant it into the mouse. The resulting mice were randomly divided into control group (six mice) and treating group (six mice). The intravenous administration of the pharmaceutical composition into the treating group started next day. The amount and schedule of the administration were determined based on the experience, mainly the knowledge from the pretoxic-test data of LD 50 and LD 10.5% glucose solution or physiologic saline for injection was injected to the control group in the same amount as that to be intravenously injected to the treating group.
The pharmaceutical composition was dissolved in 5% glucose solution or physiologic saline for injection in such that the amount of the pharmaceutical composition contained in the glucose solution or physiologic saline is 5 ml per one kg of weight of the mouse to be injected so as to prepare an injection liquid. When the proliferation of tumor in the control group reached exponential growth phase and the size of the tumor became detectable by touch with hand, i.e., generally three weeks after the transplantation, the experiment was stopped. Then the tumor of each mouse was cut off and the weight of the resulting tumor was measured by use of chemical balance. Regarding each group, tumor inhibition percentage between the treating group and control group was calculated.

| SMILES | Solubility 10 mg/mL [2] | Solubility 1 mg/mL [3] | Solubility 10 mg/mL [4] | further results |
| --- | --- | --- | --- | --- |
| CCn1c(=Cc2sc3ccccc3[n+]2CCOCCOCCOC)sc(=C2Sc3ccc4ccccc4c3N2C)c1=O [Compound 1-3] | soluble | soluble | soluble | T/C (mean survival age of treated group to untreated control group) ([1]; 7.5 mg/kg days 1, 2, 5, 7, 9, 13, 15, 20): 153%; Tumor Inhibition Ratio ([5]; 5 mg/kg day 1, 10 mg/kg days 3, 7, 13 mg/kg days 9, 13, 15, 17): 51.1% |
| CCn1c(=Cc2sc3ccccc3[n+]2CCOCCOCCOCCOC)sc(=C2Sc3ccc4ccccc4c3N2C)c1=O [Compound 1-4] | soluble | soluble | soluble | Tumor Inhibition Ratio ([5]; 5 mg/kg days 1, 3, 7.5 mg/kg day 6, 10 mg/kg days 8, 10, 12.5 mg/kg days 13, 15, 17): 71.5% |
| CCn1c(=Cc2sc3c4ccccc4ccc3[n+]2CCOCCOCCOC)sc(=C2Sc3ccc4ccccc4c3N2C)c1=O [Compound 1-5] | suspension | soluble | – | – |
| CCn1c(=Cc2sc3ccccc3[n+]2CC)sc(=C2Sc3c(ccc4ccccc34)N2CCOCCOCCOC)c1=O [Compound 1-6, 3-ethyl-2-{[3-ethyl-5-(3-methoxyethoxyethoxyethylnaphtho[2,1-d]thiazolin-2-ylidene)]-4-oxothiazolidin-2-ylidenemethyl}benzothiazolium=chloride] | soluble | soluble | – | – |
| CC[n+]1c(C=c2sc(=C3Sc4c(ccc5ccccc45)N3C)c(=O)n2CCOCCOCCOC)sc2ccccc21 [Compound 1-7, 3-ethyl-2-{[3-methoxyethoxyethoxyethyl-5-(3-methylnaphtho[2,1-d]thiazolin-2-ylidene)]-4-oxothiazolidin-2-ylidenemethyl}benzothiazolium=chloride] | soluble | soluble | soluble | T/C (mean survival age of treated group to untreated control group) ([1]; 5 mg/kg days 1, 9, 15, 10 mg/kg days 2, 5, 7, 13): 129%; Tumor Inhibition Ratio ([5]; 5 mg/kg days 1, 17, 7.5 mg/kg day 3, 10 mg/kg days 6, 8, 10, 13): 83.0% |
| CCn1c(=Cc2sc3ccccc3[n+]2CCOCCOCCOC)sc(=C2Sc3c(ccc4ccccc34)N2C)c1=O [Compound 1-8] | suspension | soluble | soluble | – |
| CCn1c(=Cc2sc3ccccc3[n+]2CCC2OCCCO2)sc(=C2Sc3ccc4ccccc4c3N2C)c1=O [Compound 1-9, 3-(1,3-dioxane-2-ethyl)-2-{[3-ethyl-5-(3-methylnaphtho[1,2-d]thiazolin-2-ylidene)]-4-oxothiazolidin-2-ylidenemethyl}benzothiazolium=chloride] | suspension | soluble | – | T/C (mean survival age of treated group to untreated control group) ([1]; 5 mg/kg days 1, 13, 15, 10 mg/kg days 2, 5, 7, 15 mg/kg day 9): 153%; Tumor Inhibition Ratio ([5]; 3 mg/kg days 1, 4, 7, 1 mg/kg days 9, 11, 13, 18): 65.6% |
| CCn1c(=Cc2sc3ccccc3[n+]2CCOCCOCCOC)sc(=C2Oc3ccc4ccccc4c3N2C)c1=O [Compound 1-10] | soluble | soluble | soluble | – |
| CCn1c(=Cc2sc3c4ccccc4ccc3[n+]2CCOCCOCCOC)sc(=C2Sc3ccccc3N2C)c1=O [Compound 1-11, 3-methoxyethoxyethoxyethyl-2-{[3-ethyl-5-(3-methylbenzothiazolin-2-ylidene)]-4-oxothiazolidin-2-ylidenemethyl}naphtho[2,1-d]thiazolium=chloride] | soluble | soluble | soluble | T/C (mean survival age of treated group to untreated control group) ([1]; 5 mg/kg days 1, 15, 10 mg/kg days 2, 5, 7, 13, 15 mg/kg day 9): 129%; Tumor Inhibition Ratio ([5]; 8 mg/kg day 1, 10 mg/kg days 3, 6, 8, 10, 15, 17): 67.9% |
| CCn1c(=Cc2sc3ccccc3[n+]2CCOCCOCCOC)sc(=C2Sc3ccccc3N2C)c1=O [Compound 1-12] | soluble | soluble | soluble | T/C (mean survival age of treated group to untreated control group) ([1]; 5 mg/kg day 1, 10 mg/kg days 2, 5, 7, 9, 13, 15): 124% |
| CCn1c(=Cc2sc3ccccc3[n+]2CCOCCOCCOC)sc(=C2Sc3ccc(OC)cc3N2C)c1=O [Compound 1-13] | soluble | soluble | soluble | T/C (mean survival age of treated group to untreated control group) ([1]; 5 mg/kg day 1, 7.5 mg/kg days 2, 5, 10 mg/kg days 7, 9, 13, 15): 124%; Tumor Inhibition Ratio ([5]; 20 mg/kg days 1, 3, 7, 11, 16, 18, 25 mg/kg day 9): 45.2% |
| CCn1c(=Cc2sc3c4ccccc4ccc3[n+]2CCOCCOCCOC)sc(=C2SCCN2C)c1=O [Compound 1-14] | soluble | soluble | soluble | – |
| CCN1C(=O)C(=C2Sc3ccc4ccccc4c3N2C)SC1=Nc1scc[n+]1CCOCCOCCOC [Compound 1-15] | soluble | soluble | soluble | Tumor Inhibition Ratio ([5]; 10 mg/kg days 1, 3, 6, 8, 10, 13, 15, 20): 60.0% |
| CCn1c(=Cc2sc3c4ccccc4ccc3[n+]2CCOCCOCCOC)sc(=CC=C2Sc3ccc4ccccc4c3N2C)c1=O [Compound 1-16] | suspension | soluble | soluble | – |
| CCn1c(=Cc2sc3ccccc3[n+]2CC)sc(=C2Sc3ccc4ccccc4c3N2C)c1=O [Compound S-1, reference compound] | suspension | suspension | suspension | dissolution in the above-described solubility tests [3]: not dissolved |
| CCn1c(=Cc2sc3ccccc3[n+]2CCOC)sc(=C2Sc3ccc4ccccc4c3N2C)c1=O [Compound S-2, reference compound] | suspension | suspension | suspension | dissolution in the above-described solubility tests [3]: not dissolved |
| CCn1c(=Cc2sc3ccccc3[n+]2CCOCCO)sc(=C2Sc3ccc4ccccc4c3N2C)c1=O [Compound S-3, reference compound] | suspension | suspension | suspension | dissolution in the above-described solubility tests [3]: not dissolved |
